Entries after “also recorded” stand apart in the source; their conditions may differ. Where a name gives a salt, the structure may show the parent alone. Blank lines part the entries; values can stand above or below the molecule they belong to.
Columns and labels:
[1] = target: LPS-Aβ42 complex (Homo sapiens, UniProt P05067); experiment: Real-time mass-sensitive measurement (QCM-D) of the non-equilibrium oscillation between LPS and Aβ42; type: binding; settings: for effect on the oscillatory event (lifetime) of the LPS-Aβ42 complex: bait in combination with LPS, Aβ42 100 μM, baits 20 μM; for time (apparent lifetime of the non-equilibrium interaction): mass dropping from 80% to 20%
Chain of LPS-Aβ42 complex (P05067 672-713 limits assumed, one chain of several): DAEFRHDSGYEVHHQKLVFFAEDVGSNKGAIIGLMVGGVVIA
From the text: The lifetime of each sample was indicated in colored lines.
A real-time mass-sensitive measurement strategy involving quartz crystal microbalance with dissipation explorer (QCM-D) and single-channel module (Q-Sense, Biolin Scientific, Vastra Frölunda, Sweden) was used to evaluate the non-equilibrium interaction between Aβ42 and two baits (LPS and natural compounds). In addition, the steady-state circular dichroism and fluorescence spectra upon excitation of tryptophan at different temperatures were recorded to reveal the secondary structures of Aβ42 in the presence and absence of LPS. The fluorescent T jump system was utilized to confirm the adsorbing capability of LPS to Aβ42 by reading the corresponding protein dynamics. The detailed methods and materials are described as follows.
Preparation of the first bait: A solution of 0.1 mM MCL-NHS and LPS at a ratio of 1:1 was mixed in DI water. The mixture was cooled at 25° C. overnight (please refer to linker modification in the following), which spontaneously allowed the conjugation of the amine group of LPS and NHS-activated carboxylic acid of MCL. Owing to the structural complexity, it was difficult to validate the amide bond formation between MCL-NHS and LPS via NMR identification (FIG. 1). Nevertheless, the supramolecular host-guest recognition between LPS and colistin (a cyclic peptide) was used to identify the existence of MCL-modified LPS (first bait). The details of the mass-sensitive measurement are described in the next section.
Linker modification: The conjugation of the first bait (LPS) and linker (3-mercaptopanyl-n-hydroxysuccinimide ester) was mixed together for overnight reaction before anchoring on the gold sensor. The linker may be linked to one or two —NH2 groups in the core oligosaccharide part of LPS.
Real-time mass-sensitive measurement: Quartz crystal microbalance with dissipation explorer (QCM-D) and single-channel module (Q-Sense™, BIOLIN SCIENTIFIC®, Vastra Fralunda, Sweden) was used to evaluate the non-equilibrium interaction between Aβ42 and two baits (LPS and natural compounds). Prior to use, the new and reused gold sensors (a circle shape with a diameter of 1.0 cm, Q-Sense Sensors™, BIOLIN SCIENTIFIC®) were precleaned using a UV/ozone cleaner and piranha solution, which was a mixture of 30% H2O2 and concentrated H2SO4 at 1:3 (v/v). This piranha solution reacts violently with organic materials and should be handled with great care and protection. After washing of the gold sensors with LPS-free DI water, the first bait was initially inputted in a flow model at a flow rate of 0.15 mL/min under 25° C., which could be immediately anchored on a clean gold sensor. We conducted all measurements by switching between the continuous flowing model (CFM) and flowing-to-soaking model (FSM) after washing; the CFM maintained the same flow rate (0.15 mL/min), and the FSM allowed the flow velocity to slow down or completely stop. A sampling interval of 0.3 s was used to collect each frequency readout at seven overtones […], while the quartz crystal resonator of the QCN-D system settled at a fundamental resonant frequency (5 MHz). The Q-Sense system was utilized in addition to the following Sauerbrey equation to obtain the third overtone (n=3) and calculate the mass change after measurement.
where Δm is the change in the adsorbed mass of molecules; Δf is the time-responded frequency observed at the third overtone; and C is a constant that is equal to 17.7 ng/cm^2 at the resonance frequency of the quartz oscillator (5 MHz). The equation (Eq. S1) allows a direct quantitative study for mass comparison.
Operation of a real-time sensing platform: To perform the measurements, the LPS-free DI water and other solvents were allowed to continuously flow for about 1 h at 25° C. or until the baseline of two parameters (frequency and dissipation of QCM-D) reached an equilibrium state before sample operation and data collection. […]

[2] = tested on: SH—SY5Y cells; experiment: Western blot of residual Aβ42 levels (clearance of Aβ42 by neuronal cells); type: cell-based; settings: co-treatment with low-dose LPS, 72 h
Protocol: The cell mixture samples were analyzed via 12% SDS-PAGE gel electrophoresis and transferred to a PVDF membrane. […] After hybridization with the primary antibody, the membrane was washed thrice with PBST before the addition of an HRP-conjugated secondary antibody against the primary antibody. The membrane was then washed thrice with PBST before immunoreactive bands were detected by UVP ChemStudio touch ([…] JENA®). The primary antibodies used in this study included the following: anti-Aβ (6E10, BIOLEGEND® 803001), anti-actin ([…]®), and anti-GAPDH (GTX100118). Signal intensity was analyzed using VisionWorks 9.1 and statistically analyzed using GraphPad Prism 9.

[3] = tested on: SH—SY5Y neuronal cells; experiment: Cell viability (CCK8) of Aβ42-treated neuronal cells; settings: for rescue of Aβ42-induced cell death by small baits alone: without co-treatment with LPS; for rescue effect of Aβ42-induced cell apoptosis: co-treatment with low dose (10 nM) LPS, bait 1, 10, 50, 100 μM, versus LPS alone
Protocol: Cell viability: Neuronal cells were maintained in MEM (GIBCO® 51200-038) supplemented with 10% FBS, 1×MEM NEAA (GIBCO® 11140-050), 1×L-glutamine (GIBCO® 25030-081), and 1×sodium pyruvate (GIBCO® 1136-070). Neuronal SH—SY5Y cells were plated at a density of 8,000 cells per well in 96-well plates and allowed to attach overnight at 37° C. in 5% CO2 humidified air. Aβ42 (100 μM), LPS (10 nM), CS (100 μM), EG (100 PM), and morin (100 μM) were then added to each medium containing 2.5% dimethyl sulfoxide and sterilized using UV light. Thereafter, the solution containing Aβ42 and LPS was mixed with CS, EG, or morin at different concentrations ranging from 1 to 100 μM and added into the plate of the SH—SY5Y cells. The medium was then replaced, and the remaining mixture was incubated for 72 h at 37° C. in 5% CO2 humidified air. Cell viability was measured using the CCK8 (SIGMA-ALDRICH® 96992) assay according to the manufacturer's protocol. Before the Aβ42 treatment of Neuronal SH—SY5Y cells, a 30 k filter was used to remove unbound LPS from the LPS-insulted Aβ42 mixture.

[4] = target: T1, Aβ42 (Homo sapiens, UniProt P05067); experiment: Circular dichroism of Aβ42 and LPS-Aβ42; settings: Aβ42 96 μM, LPS 160 nM, 25° C.
T1 sequence (P05067 672-713 limits assumed): as the sequence (P05067 672-713 limits assumed, one chain of several) above
Protocol: Circular dichroism (CD): Approximately 300 μL of (96 μM) and mixtures of Aβ42 (96 μM) and LPS (160 nM) were loaded into a quartz cuvette of an optical length of 1 mm (110-1-40, HELLMA ANALYTICS®) and measured using a spectrometer equipped with a thermostat (Model 410, AVIV BIOMEDICAL®, Inc.) in 190-260 nm at 25° C. with a spectral resolution of 1 nm.

[5] = target: T1, Aβ42; experiment: Fluorescent T jump protein dynamics of Aβ42 and LPS-Aβ42; settings: two-state model analysis upon T jump
From the text: A fluorescent T jump system was constructed on the basis of a previous report (Yang, C. T., Chu, L. K. Phys. Chem. Chem. Phys. 2022, 24, 11079-11085), with slight modification. The aqueous solutions were sandwiched by two quartz windows (diameter=25 mm, thickness=2 mm, #14-962, EDMUND OPTICS®) separated by a drilled Teflon spacer of a thickness of 0.8 mm. The diameter of the hole in the center was 2.0 mm. The circular infrared beam, which was used to heat up water to increase the temperature, from a continuous-wave diode laser at 1550 nm was focused with two convex lenses (f=100.0 mm; f=75.6 mm) to a diameter of 1.6 mm before entering the sample cell. […] The fluorescence was collected using a MicroSpot Focusing Objective (LMU-20X-NUV, THORLABS®, 325-500 nm) and later focused through a 200 μm pinhole by a lens (f=50.0 mm) to an optical fiber (300-1,200 nm). Thereafter, the collected fluorescence light was introduced to a photomultiplier tube and filtered using an optical filter to define the detection range at 300-445 nm. The voltage signal from the photomultiplier was amplified by a factor of 20 using a voltage pre-amplifier, and further recorded using an oscilloscope.
The photobleaching-induced fluorescence decrease should be considered in the evolution of the fluorescence intensity change of Aβ42 and LPS-A342 upon T jump. […]

Molecule: O=C(O[C@@H]1Cc2c(O)cc(O)cc2O[C@@H]1c1cc(O)c(O)c(O)c1)c1cc(O)c(O)c(O)c1 [EG, epigallocatechin gallate]
effect on the oscillatory event (lifetime) of the LPS-Aβ42 complex [1]: did not perturb the oscillatory event | residual Aβ42 levels from the total lysate [2]: not observed; also recorded: no impact on the degradation of Aβ42 | rescue of Aβ42-induced cell death by small baits alone ([3]; Aβ42 100 μM): could not alleviate Aβ42-induced cell death

Molecule: COc1cc(/C=C/C(=O)CC(=O)/C=C/c2ccc(O)c(OC)c2)ccc1O [curcumin]
effect on the oscillatory event (lifetime) of the LPS-Aβ42 complex [1]: did not perturb the oscillatory event

Molecule: O=c1c(O)c(-c2ccc(O)cc2O)oc2cc(O)cc(O)c12 [morin]
ln(γ) ([1]; [morin] 20 nM): 2.75 | Δt = tw/morin − tw/o morin ([1]; [morin] 20 nM): 63 s | γ (lifetime increment percentage) ([1]; [morin] 20 nM): 15.7% | time (apparent lifetime of the non-equilibrium interaction) ([1]; [morin] 20 nM): 465 s | ln(γ) ([1]; [morin] 50 nM): 3.47 | Δt = tw/morin − tw/o morin ([1]; [morin] 50 nM): 129 s | γ (lifetime increment percentage) ([1]; [morin] 50 nM): 32.1% | time (apparent lifetime of the non-equilibrium interaction) ([1]; [morin] 50 nM): 531 s | ln(γ) ([1]; [morin] 100 nM): 4.22 | Δt = tw/morin − tw/o morin ([1]; [morin] 100 nM): 275 s | γ (lifetime increment percentage) ([1]; [morin] 100 nM): 68.4% | time (apparent lifetime of the non-equilibrium interaction) ([1]; [morin] 100 nM): 677 s | ln(γ) ([1]; [morin] 200 nM): 4.42 | Δt = tw/morin − tw/o morin ([1]; [morin] 200 nM): 335 s | γ (lifetime increment percentage) ([1]; [morin] 200 nM): 83.3% | time (apparent lifetime of the non-equilibrium interaction) ([1]; [morin] 200 nM): 737 s | effect on the oscillatory event (lifetime) of the LPS-Aβ42 complex [1]: extended; also recorded: significant prolongation; also recorded: significant time extension; also recorded: prolonged in a dose-dependent manner | n, power to which bait concentration is taken (slope of ln(γ) versus ln([morin])) ([1]; linear regression of Table S1 data): 0.76±0.10 | residual Aβ42 levels from the total lysate [2]: significantly decreased; also recorded: dose-dependent depletion of Aβ42 | rescue effect of Aβ42-induced cell apoptosis ([3]; Aβ42 100 μM): in a dose-dependent manner; also recorded: could be observed | rescue of Aβ42-induced cell death by small baits alone ([3]; Aβ42 100 μM): could not alleviate Aβ42-induced cell death

Molecule: Lipopolysaccharide [LPS]
lifetime of mass oscillation ([1]; LPS anchored on sensor, Aβ42, FSM, no bait): less than 30 min | effect on secondary structure of Aβ42 (CD spectra) [4]: does not initiate the unfolding of the secondary structure of Aβ42 | effect on thermally induced protein dynamics of Aβ42 [5]: retarded the upward response | cell viability ([3]; LPS of Aβ42 solution removed): less than 10% | viability of neuronal cells in medium containing Aβ42 ([3]; high dose (1000 nM) of LPS, Aβ42 100 μM): 100%

Molecule: chondroitin sulfate sodium [CS]
effect on the oscillatory event (lifetime) of the LPS-Aβ42 complex [1]: shortened the binding event; also recorded: shortening | residual Aβ42 levels from the total lysate [2]: not observed; also recorded: no impact on the degradation of Aβ42 | rescue effect of Aβ42-induced cell apoptosis ([3]; Aβ42 100 μM): not observed | rescue of Aβ42-induced cell death by small baits alone ([3]; Aβ42 100 μM): could not alleviate Aβ42-induced cell death

Continued, values first:

effect on the oscillatory event (lifetime) of the LPS-Aβ42 complex [1]: did not perturb the oscillatory event
Molecule: O=c1c(O)c(-c2cc(O)c(O)c(O)c2)oc2cc(O)cc(O)c12 [myricetin]

effect on the oscillatory event (lifetime) of the LPS-Aβ42 complex [1]: did not perturb the oscillatory event
Molecule: CCN(CC)CCCC(C)Nc1c2ccc(Cl)cc2nc2ccc(OC)cc12 (centres unmarked) [quinacrine dihydrochloride]

effect on the oscillatory event (lifetime) of the LPS-Aβ42 complex [1]: did not perturb the oscillatory event
Molecule: O=C(/C=C/c1ccc(O)c(O)c1)O[C@H](Cc1ccc(O)c(O)c1)C(=O)O [rosmarinic acid]

effect on the oscillatory event (lifetime) of the LPS-Aβ42 complex [1]: did not perturb the oscillatory event
Molecule: O=C(OC[C@H]1O[C@@H](OC(=O)c2cc(O)c(O)c(OC(=O)c3cc(O)c(O)c(O)c3)c2)[C@H](OC(=O)c2cc(O)c(O)c(OC(=O)c3cc(O)c(O)c(O)c3)c2)[C@@H](OC(=O)c2cc(O)c(O)c(OC(=O)c3cc(O)c(O)c(O)c3)c2)[C@@H]1OC(=O)c1cc(O)c(O)c(OC(=O)c2cc(O)c(O)c(O)c2)c1)c1cc(O)c(O)c(OC(=O)c2cc(O)c(O)c(O)c2)c1 [tannic acid]
